Among the data in the OPERA property sets (Mansouri et al. 2018) are logP values, retold here.

Each structure is given as a SMILES string. Where a SMILES comes first, the peptide text is derived from it.

For the compound `COc1c2oc(=O)c(C)cc2cc2c(C)c(C)oc12`, the logP (usually the decadic logarithm of the partition coefficient of the neutral form, usually between octanol and water) was 3.28.

On to `COc1ccc(C2Cc3c(cccc3C(F)(F)F)N(CCN(C)C)C(=O)C2C)cc1` (centres undefined), for which the logP came to 5.6.

Regarding `O=C(O)CCCCCON=C(c1cccc(C(F)(F)F)c1)c1ccncn1`, the lipophilicity (logP) turned out to be 3.55.

`CC(C)Nc1[nH]cnc2ncnc1-2` came in with a logP of 1.38.

For the compound `Cc1nc2c3c(c(C(=O)N4CC(O)C4)cn2c1C)CCC(c1ccccc1)O3` (centres undefined), the logP was 3.1.

As for `COC(=O)C(C)=CC1C(C(=O)OCc2cccc(C(=O)c3ccccc3)c2)C1(C)C` (centres undefined), the logP turned out to be 5.45.

In turn, `O=C(Nc1ncnc2nc[nH]c12)c1ccccc1` showed a logP of 1.12.

`CN(C)CCCCc1ccccc1` displayed a lipophilicity (logP) of 3.15.

In turn, `CC(C)NC(=NC#N)NS(=O)(=O)c1cnccc1NC1CCCCCCC1` displayed a logP of 2.58.

`Brc1c2ccccc2c(Br)c2ccccc12` returned a logP of 6.29.

`Cc1cc(=O)[nH]nc1/C=C/c1ccc(-n2ccnc2)cc1` displayed a logP of 1.71.

With `CC(C)CC(N)C(=O)N1CCCC1C(=O)NC(CC(C)C)C(=O)O` (centres undefined), the logP is -1.56.

`CC(C)(C)c1ccc(C(CCN2CCCC2)c2ccccc2)cc1` (centres undefined) showed a logP of 6.72.

On to `CC1NCCc2c1[nH]c1ccc([N+](=O)[O-])cc21` (centres undefined), for which the logP was 2.07.

Take `Cc1ccccc1Nc1ccncc1S(=O)(=O)NC(=O)NC(C)C`: the logP is 3.91.

In the case of `CCCCCCCCCCNCCO`, the logP stood at 3.62.

Compound `Cc1sc2ccc3c(C)cc(=O)oc3c2c1C` had a logP of 3.65.

For `CCCOC(=O)C=COc1ccccc1`, the logP turned out to be 3.72.

As to `CC(C)OC(=O)C(=Cc1ccccc1)S(=O)(=O)c1ccc(Cl)cc1`, the logP was 4.18.

In turn, `COc1cccc(C(O)C(C(=O)O)c2ccc(-c3ccccc3)cc2)c1` (centres undefined) showed a logP of 3.53.

Compound `Cc1nc2ccccc2c(=O)n1CC(=O)NCc1ccco1` registered a logP of 1.24.

Regarding `CCN(CC)c1ccc(NC(=O)N(C)OC)cc1`, the logP came out at 2.33.

Regarding `NC(Cc1c[nH]c2ccccc12)C(=O)NC(Cc1ccccc1)C(=O)O` (centres undefined), the logP is -0.47.

`COc1ccc(C2Cc3c(ccc(Br)c3OC)N(CCN(C)C)C(=O)C2C)cc1` (centres undefined) registered a logP of 5.4.

Regarding `CC(C)=CCCC(C)=CCCC(C)(C)O`, the logP turned out to be 4.54.

In the case of `CC(C)C(N)C(=O)NC(Cc1ccc(O)cc1)C(=O)O` (stereo not drawn) (H-Val-Tyr-OH; configuration not given here), the lipophilicity (logP) is -2.52.

The compound `COc1ccc(N2CC(N3CCCCC3)=NC2=O)cc1` showed a logP of 1.5.

Take `OCCCCCCNc1ncnc2nc[nH]c12`: the log partition coefficient (logP) came to 1.14.

`O=C(NP(=O)(N1CC1)N1CC1)c1ccc(F)cc1` had a logP of 0.86.

In the case of `Cc1ccc(S(=O)(=O)C(=Cc2ccccc2)C(=O)OC(C)C)cc1`, the logP was determined as 3.92.

`CCCCC(=O)c1ccncc1` gave a logP of 2.

In turn, `CN1CC(O)N(C(=O)NC(C)(C)C)C1=O` (centres undefined) gave a logP of 1.38.

Regarding `O=[N+]([O-])c1ncn(C2OC(CO)C(O)C2O)n1` (centres undefined), the logP was -1.54.

With `CC(=O)NCCC(=O)NCc1c(O)c(=O)cc(C)n1C`, the logP is -1.7.

Consider `CC(C)(C)NC(=O)[C@@H]1CN(Cc2cccnc2)CCN1C[C@@H](O)C[C@@H](Cc1ccccc1)C(=O)N[C@H]1c2ccccc2C[C@H]1O`, for which the log partition coefficient (logP) was 3.49.

`COc1ccc(CCNCC(O)COc2ccc(-c3nc(C(C)=O)c[nH]3)cc2)cc1OC` (centres undefined) showed a logP of 2.7.

With `c1ccc(N2CCN(CCn3nc4ccccc4n3)CC2)cc1`, the logP is 3.34.

With `CC(C)NC(=NC#N)NS(=O)(=O)c1cnccc1Nc1cccc(Br)c1`, the logP worked out at 2.27.

As to `Cc1ccccc1CNc1[nH]cnc2ncnc1-2`, the logP came to 2.58.

Take `CC(C)CC(NC(=O)C(Cc1ccccc1)NC(=O)CNC(=O)C(NC(=O)C(N)Cc1ccc(O)cc1)C(C)O)C(=O)O` (centres undefined) (H-YTGFL-OH; configuration not given here): the logP is -1.18.

`O=C(O)Cc1c(O)cccc1Nc1c(Cl)cccc1Cl` showed a logP of 4.65.

`CC(C)CC(N)C(=O)NC(C(=O)O)C(C)C` (stereo not drawn) (H-Leu-Val-OH; configuration not given here): the logP is -2.05.

In the case of `CC(C)CC(N)C(=O)NC(Cc1ccc(O)cc1)C(=O)O` (centres undefined), the logP was -1.94.

For `Cc1ccccc1C=[N+]([O-])C(C)(C)C`, the logP worked out at 1.5.

For the compound `CCCNc1ncnc2c1ncn2C1OC(CO)C(O)C1O` (centres undefined), the logP came to 0.54.

As for `COC(=O)c1[nH]cc(-c2ccc(Br)cc2)c1N1CCOCC1`, the logP is 3.8.

In turn, `COC(=O)c1ccc(Cl)cc1[N+](=O)[O-]` gave a logP of 2.35.

Turning to `CC(=O)OCC1OC(n2ccc(=O)[nH]c2=O)C(OC(C)=O)C1OC(C)=O` (centres undefined), the logP was -0.36.

Compound `CCCOCCCNc1ncnc2c1ncn2C1OC(CO)C(O)C1O` (centres undefined) came in with a logP of 0.81.

Compound `CCCCNC1CCc2c(OC)cccc2C1C` (centres undefined) displayed a logP of 3.73.

With `CCC1(C(=O)NC(C)c2ccc(Cl)cc2)C(C)C1(Cl)Cl` (centres undefined), the logP was 4.23.

In the case of `Cc1oc2cc3oc(=O)ccc3cc2c1C`, the logP came to 2.93.

With `CCCON=C(C)c1cccc(Oc2nc(OC)cc(OC)n2)c1C(=O)OC`, the log partition coefficient (logP) turned out to be 3.59.

Turning to `NC(=O)c1cccc(Cc2ncccn2)c1`, the lipophilicity (logP) was 0.28.

Compound `O=C1N=C(N2CCCC2)CN1c1ccc(Cl)cc1` showed a logP of 2.

`NC(Cc1ccc(O)cc1)C(=O)NC(Cc1ccc(O)cc1)C(=O)O` (stereo not drawn) (H-Tyr-Tyr-OH; configuration not given here): the log partition coefficient (logP) is -1.87.

`O=c1cc(CI)occ1O` had a logP of 0.67.

Regarding `CCCCC(=O)OCOCC(=O)C1(O)Cc2c(O)c3c(c(O)c2C(OC2CC(N(C)C)C(O)C(C)O2)C1)C(=O)c1c(OC)cccc1C3=O` (centres undefined), the logP came to 2.82.

In turn, `O=C1C=C(N2CCCC2)C(=O)N1c1ccc(F)cc1` returned a logP of 2.3.

Consider `CCCCC(=O)OCC(=O)C1(O)Cc2c(O)c3c(c(O)c2C(OC2CC(N)C(O)C(C)O2)C1)C(=O)c1c(OC)cccc1C3=O` (centres undefined), for which the logP was 2.56.

Consider `O=C(NC1CCCCC1)NS(=O)(=O)c1cnccc1NC1CCCCCCC1`, for which the logP amounted to 4.96.

The compound `CC(C)(C)NCc1ccc(S(=O)(=O)c2csc(S(N)(=O)=O)c2)cc1` had a logP of 1.76.

In turn, `CSc1cccc2nc(N)nc(N)c12` yielded a logP of 1.81.

`C[N+](C)([O-])CCCCc1ccccc1` came in with a logP of 0.46.

Take `CC(C)NC(=NC#N)NS(=O)(=O)c1cnccc1NC1CCCCCCCCCCC1`: the logP turned out to be 4.51.

Turning to `Cc1cnc2ccc3c(nc(N)n3C)c2n1`, the logP was 1.01.

Turning to `COC(=O)N1CCN(C(=O)Cc2ccc(Cl)c(Cl)c2)C(CN2CCCC2)C1` (centres undefined), the logP was determined as 4.1.

`O=C(C=Cc1ccc([N+](=O)[O-])o1)NN=Cc1ccc([N+](=O)[O-])o1` returned a log partition coefficient (logP) of 2.79.

Turning to `Cc1nc2c3c(c(C(=O)N(C)C)cn2c1Br)CCC(c1ccccc1)O3` (centres undefined), the logP was determined as 3.4.

Consider `CCCNC(C)C(=O)Nc1c(C)csc1C(=O)OC` (centres undefined), for which the logP was found to be 1.89.

In turn, `CCCCCCC(Nc1ccc([N+](=O)[O-])cc1[N+](=O)[O-])C(=O)O` (centres undefined) registered a logP of 4.2.

In turn, `CCOc1cccc2nc(N)nc(N)c12` had a logP of 1.69.

For `CSCCC(N)C(=O)NC(Cc1ccc(O)cc1)C(=O)O` (stereo not drawn) (H-Met-Tyr-OH; configuration not given here), the logP was -2.03.

`Clc1cc(Oc2ccccc2)c(Cl)c(Cl)c1Cl` returned a logP of 6.31.
